Assay results taken from ChEMBL document CHEMBL1201862, “PubChem BioAssay data set” (2004).
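How tested: cells in 96-well plates exposed to compound for 48 hours at five concentrations. Here, GI50 denotes the concentration required for 50% inhibition of growth.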 Calls of active or inactive are those of the source. No stated cut-off is given here; in the data, active = GI50 up to about 1.1 µM and inactive = higher.

How the values were obtained:
Assay in all cases: DTP human tumour cell line panel, 48 h
HOP-92 = system: HOP-92
NCI-H460 = system: NCI-H460
CCRF-CEM = system: CCRF-CEM
DLD-1 = system: DLD-1
SK-MEL-5 = system: SK-MEL-5
SK-MEL-28 = system: SK-MEL-28
OVCAR-5 = system: OVCAR-5
HCT-15 = system: HCT-15
NCI-H23 = system: NCI-H23
SF-295 = system: SF-295
UACC-62 = system: UACC-62
OVCAR-8 = system: OVCAR-8
SF-539 = system: SF-539
HCT-116 = system: HCT-116
ACHN = system: ACHN
COLO 205 = system: COLO 205
SR = system: SR
LOX IMVI = system: LOX IMVI
KM-20L2 = system: KM-20L2
A549 = system: A549
CAKI-1 = system: CAKI-1
KM12 = system: KM12
HCC 2998 = system: HCC 2998
HOP-18 = system: HOP-18
M19-MEL = system: M19-MEL
EKVX = system: EKVX
RXF 393 = system: RXF 393
SN12C = system: SN12C
XF498 = system: XF498
HOP-62 = system: HOP-62
SNB-78 = system: SNB-78
786-0 = system: 786-0
UACC-257 = system: UACC-257
NCI-H226 = system: NCI-H226
DMS-273 = system: DMS-273
SNB-19 = system: SNB-19
UO-31 = system: UO-31
NCI-H522 = system: NCI-H522
RPMI-8226 = system: RPMI-8226
SF-268 = system: SF-268
Malme-3M = system: Malme-3M
SNB-75 = system: SNB-75
OVCAR-4 = system: OVCAR-4
HT-29 = system: HT-29
K562 = system: K562
IGROV-1 = system: IGROV-1
TK-10 = system: TK-10
OVCAR-3 = system: OVCAR-3
SK-OV-3 = system: SK-OV-3
M14 = system: M14
LXFL 529 = system: LXFL 529
MOLT-4 = system: MOLT-4
HL-60 = system: HL-60
U-251 = system: U-251
SK-MEL-2 = system: SK-MEL-2
SW-620 = system: SW-620
A498 = system: A498
DMS-114 = system: DMS-114
NCI/ADR-RES = system: NCI/ADR-RES
MCF7 = system: MCF7
RXF 631 = system: RXF 631

With `CC(=O)Nc1ccc(/C=C(\NC(=O)c2ccccc2)C(=O)NNS(=O)(=O)c2ccc(C)cc2)cc1` the GI50 (HOP-92) was > 100 µM (inactive), the GI50 (NCI-H460) was 50.2 µM (inactive) and the GI50 (CCRF-CEM) was > 100 µM (inactive). For the same molecule, the GI50 (DLD-1) was 33 µM (inactive), the GI50 (SK-MEL-5) was > 100 µM (inactive) and the GI50 (SK-MEL-28) was > 100 µM (inactive). The GI50 (OVCAR-5) was > 100 µM (inactive), the GI50 (HCT-15) was 18.4 µM and the GI50 (NCI-H23) was > 100 µM (inactive). For the same molecule, the GI50 (SF-295) was > 100 µM (inactive), the GI50 (UACC-62) was > 100 µM (inactive) and the GI50 (OVCAR-8) was > 100 µM (inactive). For the same molecule, the GI50 (SF-539) was > 100 µM (inactive), the GI50 (HCT-116) was > 100 µM (inactive) and the GI50 (ACHN) was > 100 µM (inactive). The GI50 (COLO 205) was 25.8 µM (inactive), the GI50 (SR) was 20.1 µM (inactive) and the GI50 (LOX IMVI) was 16.4 µM (inactive). For the same molecule, the GI50 (KM-20L2) was > 100 µM (inactive), the GI50 (A549) was > 100 µM (inactive) and the GI50 (CAKI-1) was > 100 µM (inactive). For the same molecule, the GI50 (KM12) was > 100 µM (inactive), the GI50 (HCC 2998) was > 100 µM (inactive) and the GI50 (HOP-18) was > 100 µM (inactive). The GI50 (M19-MEL) was > 100 µM (inactive), the GI50 (EKVX) was > 100 µM (inactive) and the GI50 (RXF 393) was > 100 µM (inactive). For the same molecule, the GI50 (SN12C) was > 100 µM (inactive), the GI50 (XF498) was > 100 µM (inactive) and the GI50 (HOP-62) was > 100 µM (inactive). The GI50 (SNB-78) was > 100 µM (inactive), the GI50 (786-0) was > 10 µM (inactive) and the GI50 (UACC-257) was > 100 µM (inactive). The GI50 (NCI-H226) was > 100 µM (inactive), the GI50 (DMS-273) was 18.2 µM (inactive) and the GI50 (SNB-19) was > 100 µM (inactive). For the same molecule, the GI50 (UO-31) was > 100 µM (inactive), the GI50 (NCI-H522) was > 100 µM (inactive) and the GI50 (RPMI-8226) was 22.5 µM (inactive). The GI50 (SF-268) was 78.9 µM (inactive), the GI50 (Malme-3M) was > 100 µM (inactive) and the GI50 (SNB-75) was > 100 µM (inactive). For the same molecule, the GI50 (OVCAR-4) was > 100 µM (inactive), the GI50 (HT-29) was > 100 µM (inactive) and the GI50 (K562) was > 100 µM (inactive). For the same molecule, the GI50 (IGROV-1) was > 100 µM (inactive), the GI50 (TK-10) was > 100 µM (inactive) and the GI50 (OVCAR-3) was > 100 µM (inactive). The GI50 (SK-OV-3) was > 100 µM (inactive), the GI50 (M14) was > 100 µM (inactive) and the GI50 (LXFL 529) was > 100 µM (inactive). For the same molecule, the GI50 (MOLT-4) was > 100 µM (inactive), the GI50 (HL-60) was > 100 µM (inactive) and the GI50 (U-251) was > 100 µM (inactive). For the same molecule, the GI50 (SK-MEL-2) was > 100 µM (inactive).

With `COC(=O)[C@]1(c2ccc(N(C)C)cc2OC)C[C@@H]2CCCN(CCc3c1[nH]c1ccccc31)C2` the GI50 (HOP-92) was 10.7 µM (inactive), the GI50 (NCI-H460) was 16.7 µM (inactive) and the GI50 (CCRF-CEM) was 25 µM (inactive). For the same molecule, the GI50 (SW-620) was 40.3 µM (inactive), the GI50 (DLD-1) was 27.2 µM (inactive) and the GI50 (SK-MEL-5) was 17.2 µM (inactive). The GI50 (SK-MEL-28) was 19.6 µM (inactive), the GI50 (OVCAR-5) was > 60.4 µM (inactive) and the GI50 (A498) was 19 µM (inactive). For the same molecule, the GI50 (HCT-15) was 20.8 µM, the GI50 (NCI-H23) was 18.9 µM (inactive) and the GI50 (SF-295) was > 43.7 µM (inactive). For the same molecule, the GI50 (UACC-62) was 18 µM (inactive), the GI50 (OVCAR-8) was 24.9 µM (inactive) and the GI50 (SF-539) was 20.5 µM (inactive). For the same molecule, the GI50 (HCT-116) was 29.9 µM (inactive), the GI50 (COLO 205) was 13.8 µM (inactive) and the GI50 (LOX IMVI) was > 43.7 µM (inactive). For the same molecule, the GI50 (DMS-114) was 16.6 µM (inactive), the GI50 (KM-20L2) was 17.1 µM (inactive) and the GI50 (A549) was 34.4 µM (inactive). For the same molecule, the GI50 (CAKI-1) was 54.1 µM (inactive), the GI50 (KM12) was 23.1 µM (inactive) and the GI50 (HCC 2998) was 15.3 µM (inactive). The GI50 (NCI/ADR-RES) was 18.8 µM (inactive), the GI50 (HOP-18) was 24.1 µM (inactive) and the GI50 (M19-MEL) was 16.4 µM (inactive). The GI50 (MCF7) was 15.9 µM (inactive), the GI50 (EKVX) was 22.3 µM (inactive) and the GI50 (RXF 393) was 19.8 µM (inactive). For the same molecule, the GI50 (SN12C) was 19.3 µM (inactive), the GI50 (XF498) was 18.7 µM (inactive) and the GI50 (HOP-62) was 30.3 µM (inactive). For the same molecule, the GI50 (SNB-78) was 31 µM (inactive), the GI50 (UACC-257) was 21 µM (inactive) and the GI50 (NCI-H226) was 17.4 µM (inactive). For the same molecule, the GI50 (DMS-273) was 20.5 µM (inactive), the GI50 (SNB-19) was 74 µM (inactive) and the GI50 (UO-31) was 15.5 µM (inactive). For the same molecule, the GI50 (NCI-H522) was 17.4 µM (inactive), the GI50 (RPMI-8226) was 28.1 µM (inactive) and the GI50 (SF-268) was 21.1 µM (inactive). For the same molecule, the GI50 (Malme-3M) was 15.9 µM (inactive), the GI50 (SNB-75) was 12.4 µM (inactive) and the GI50 (OVCAR-4) was 13.3 µM (inactive). For the same molecule, the GI50 (HT-29) was 15 µM (inactive), the GI50 (K562) was 17.3 µM (inactive) and the GI50 (IGROV-1) was 20.2 µM (inactive). The GI50 (OVCAR-3) was 18.5 µM (inactive), the GI50 (SK-OV-3) was > 47 µM (inactive) and the GI50 (MOLT-4) was 31 µM (inactive). For the same molecule, the GI50 (HL-60) was 11.7 µM (inactive), the GI50 (U-251) was 19.1 µM (inactive) and the GI50 (SK-MEL-2) was 20.3 µM (inactive).

`COC(=O)CC(=O)OSc1ccccc1` was tested, and the GI50 (HOP-92) was 17.7 µM (inactive), the GI50 (NCI-H460) was 38.5 µM (inactive) and the GI50 (CCRF-CEM) was 3.76 µM (inactive). For the same molecule, the GI50 (SW-620) was 18.1 µM (inactive), the GI50 (DLD-1) was 17.2 µM (inactive) and the GI50 (SK-MEL-5) was 22.3 µM (inactive). For the same molecule, the GI50 (OVCAR-5) was 45 µM (inactive), the GI50 (A498) was 17.3 µM (inactive) and the GI50 (NCI-H23) was 24.7 µM (inactive). The GI50 (SF-295) was 27.5 µM (inactive), the GI50 (UACC-62) was 14.9 µM (inactive) and the GI50 (SF-539) was 12.3 µM (inactive). The GI50 (HCT-116) was 12.9 µM (inactive), the GI50 (ACHN) was 18.2 µM (inactive) and the GI50 (COLO 205) was 19.5 µM (inactive). The GI50 (SR) was 6.03 µM (inactive), the GI50 (LOX IMVI) was 12.6 µM (inactive) and the GI50 (DMS-114) was 11.6 µM (inactive). For the same molecule, the GI50 (KM-20L2) was 20 µM (inactive), the GI50 (A549) was 12.5 µM (inactive) and the GI50 (KM12) was 25.5 µM (inactive). For the same molecule, the GI50 (HCC 2998) was 28.1 µM (inactive), the GI50 (EKVX) was 17.6 µM (inactive) and the GI50 (RXF 393) was 10.4 µM (inactive). For the same molecule, the GI50 (SN12C) was 12.9 µM (inactive), the GI50 (HOP-62) was 22.4 µM (inactive) and the GI50 (UACC-257) was 25.4 µM (inactive). For the same molecule, the GI50 (NCI-H226) was 24.6 µM (inactive), the GI50 (DMS-273) was 22.7 µM (inactive) and the GI50 (SNB-19) was 41.7 µM (inactive). For the same molecule, the GI50 (UO-31) was 12.2 µM (inactive), the GI50 (NCI-H522) was 1.61 µM (inactive) and the GI50 (RPMI-8226) was 15.7 µM (inactive). For the same molecule, the GI50 (Malme-3M) was 42.4 µM (inactive), the GI50 (OVCAR-4) was 28.6 µM (inactive) and the GI50 (K562) was 35.2 µM (inactive). For the same molecule, the GI50 (IGROV-1) was 7.71 µM (inactive), the GI50 (TK-10) was 43 µM (inactive) and the GI50 (OVCAR-3) was 14.6 µM (inactive). The GI50 (SK-OV-3) was 21.1 µM (inactive), the GI50 (RXF 631) was 11.4 µM (inactive) and the GI50 (M14) was 17.6 µM (inactive). For the same molecule, the GI50 (MOLT-4) was 4.63 µM (inactive), the GI50 (U-251) was 3.48 µM (inactive) and the GI50 (SK-MEL-2) was 34.6 µM (inactive).
